Like-named read-outs stand apart in the source and are kept apart here. No end group written: not given here.

Assay [1] concerns methicillin-resistant Staphylococcus aureus (ATCC 33591). Particulars: for MBC MRSA: Tables 11-15, no unit printed.
Assay [2] deals with Pseudomonas aeruginosa and Staphylococcus aureus. In words: MBC assay, antibacterial activity of Romo1-derived peptides compared in words. The assay is classed as cell-based. Particulars: Table 1 peptides. The source says:
Romo1 protein comprises two α-helices. The present inventors synthesized the α-helix 2 region having both hydrophilicity and hydrophobicity, and evaluated the antibacterial activity thereof using minimum bactericidal concentration (MBC) assay. The α-helix 2 region was named KU-5279 (the 52-79 amino acid region of Romo1 protein). Then, in order to identify peptides that are beneficial for human application and have excellent antibacterial activity, the present inventors synthesized several peptides comprising a sequence of contiguous amino acids starting at any amino acid selected from the 52-79 amino acid region of Romo1 protein, and comparatively evaluated the antibacterial activities of the peptides by minimum bactericidal concentration assay (See Table 1 below for information on each peptide). Evaluation of the antibacterial activity of each peptide by minimum bactericidal concentration assay was specifically performed as follows. First, each of Pseudomonas aeruginosa (ATCC 27853) and Staphylococcus aureus (ATCC 29213) was cultured in 3% (w/v) TSB (Tryptic Soy Broth) liquid medium at 37° C. and 200 rpm for 4 hours, and then further cultured under the same conditions for 3 hours to a concentration of 5×10^6 CFU/ml. […]

Take KTMMQSGGTFGTFMAIGMGIR [KU-5878]: in assay [1] (ATCC 33591, 4 h), the “MBC value (μg/ml) against methicillin-resistant Staphylococcus aureus” value was 100 µg/mL. Further, the MBC MRSA in assay [1] was determined as 110 µg/mL; in assay [1] (listed as 5878), 100 µg/mL. The “antibacterial activity by MBC assay, in words” value in assay [2] is “three times better antibacterial activity than KU-5279”.

The values above are taken from patent US12053506B2, “Romo1-derived antimicrobial peptides and variants thereof” (priority 2019, dated 2024).
